{
  "source": "patent US10485769B2",
  "about": "“Cholesteryl ester transfer protein (CETP) inhibition in the treatment of cancer” (KING ABDULLAH UNIVERSITY OF SCIENCE AND TECHNOLOGY, priority 2015, dated 2019)",
  "key": {"[1]": {"tested_on": "apoptosis-associated proteins in MCF-7 cells", "assay": "Western blotting of apoptosis-associated proteins", "format": "cell-based, human", "conditions": "10 μM; for PARP-1 cleavage: 12 and 24 h time points; for expression of DNA damage marker pH2AX: as early as 2 h, remained elevated", "experimental": "FIG. 2: Mode of induction in MCF-7 cells after treatment with AP and PL was determined by measuring changes in MOMP and levels of apoptosis-associated proteins. The cells were incubated with 10 μM AP and PL for different time intervals to capture the timeline of apoptosis induction in MCF-7 cells. The changes in MOMP were measured using flow cytometry after treating MCF-7 cells with PL and AP for 1, 2 and 4 h (A). […] F).\nIntrinsic apoptosis is activated by the mitochondria where MOMP is reduced and the imbalance between pro- and anti-apoptotic factors results in activation of caspases 9, 3 and 7, cleavage of caspase substrate like PARP-1 (Poly [ADP-ribose] polymerase 1) and fragmentation of DNA. After treatment with 10 μM PL and AP alterations in the ratio of Bax and Bcl2 were observed and pro-caspase 9 levels were reduced (FIGS. 2B and C)."}, "BJ CETP knockdown cells": {"tested_on": "BJ CETP knockdown cells", "assay": "Apoptosis in BJ CETP knockdown cells", "format": "cell-based, human", "conditions": "10 μM PL or AP", "experimental": "FIG. 10: The effect of CETP mRNA silencing on MMP (A), Capase-3/7 activity (B) and apoptosis in MCF-7 (C) and BJ (D) untransfected, cntl siRNA and CETP knockout cells after treatment with 10 μM PL or AP. Values represent the means±SD of three independent experiments.\nNext, we intended to see if CETP silencing increased sensitivity of MCF-7 cells to apoptosis."}, "MCF-7 cells [2]": {"tested_on": "MCF-7 cells", "assay": "Mitochondrial Outer Membrane Potential (MOMP) by flow cytometry", "format": "cell-based, human", "conditions": "10 μM PL, AP; 100 mM H2O2 positive control; versus untreated cells", "experimental": "FIG. 2: Mode of induction in MCF-7 cells after treatment with AP and PL was determined by measuring changes in MOMP and levels of apoptosis-associated proteins. The cells were incubated with 10 μM AP and PL for different time intervals to capture the timeline of apoptosis induction in MCF-7 cells. The changes in MOMP were measured using flow cytometry after treating MCF-7 cells with PL and AP for 1, 2 and 4 h (A). The alteration in expression of several apoptosis-associated proteins were determined using western blotting after incubating MCF-7 cells for 1, 2, 4, 6 h with PL (C, E) and AP (D. F).\nThe changes in Mitochondrial Outer Membrane Potential (MOMP) and proteins involved in the apoptotic cascade were assessed (FIG. 2)."}, "MCF-7 cells [3]": {"tested_on": "MCF-7 cells", "assay": "Total cholesterol in cells, Amplex Red Cholesterol kit", "format": "cell-based, human", "conditions": "10 μM, within 2 h, compared to untreated cells", "experimental": "FIG. 5: Cholesterol depletion by PL and AP. BJ, BT20 and MCF-7 cells were treated with 10 μM PL or AP for 2 h and cholesterol levels were determined with the Amplex Red Cholesterol kit as per manufacturer's instructions. Cells treated with 5 mg/ml MBCD was used as a positive control and fluorescence was measured with a Tecan plate reader. MCF-7 cells were pre-incubated with 1 mM cholesterol for 1 h followed by treatment with 10 μM PL or AP for 2 h (A). Apoptosis was determined by flow cytometry with the APOPercentage kit or Cells treated with MBCD and 5 mM H2O2 served as positive controls (B). Values represent the means±SD of three independent experiments.\nNext, we determined the effects of PL and AP on cholesterol levels in cells. Within 2 h of treatment with PL or AP, total cholesterol was reduced by 35% in MCF-7 cells as compared to untreated cells (FIG. 5). To test whether cholesterol depletion occurred in other cell types or if this was limited to ER positive BC cells, BJ and BT20 cells were also treated with PL or AP (Fig.)."}, "CETP [4]": {"tested_on": "CETP", "assay": "CETP mRNA in mice tumor samples, qRT-PCR", "format": "in vivo", "conditions": "2 mg/kg PL, 5 mg/kg AP", "experimental": "(§1) FIG. 7: Levels of CETP mRNA in tumor (A) and protein in serum (B) in mice tumor samples after treatment with 2 mg/kg PL or 5 mg/kg AP were determined with the RT-PCR and western blotting, respectively. Fold change in expression of serum protein was determined using densitometry analysis of western blots using ImageJ (C). CETP activity in serum was estimated using CETP activity kit (name of kit/manufacturer) (D). Values represent the means±SD of three independent experiments. * where p≤0.05, and ** where p≤0.005.\n(§2) We performed qRT-PCR using mRNA isolated from mice tumor samples to determine the expression of CETP after treatment with PL and AP (FIG. 7A). […] CETP mRNA is translated into 74 kD protein comprised of 476 amino acids that localizes in plasma. […] CETP protein levels in mice serum samples were determined by western blotting (FIG. 7B)."}, "BJ CETP siRNA cells": {"tested_on": "BJ CETP siRNA cells", "assay": "Cholesterol levels in BJ CETP siRNA cells", "format": "cell-based, human", "conditions": "treated with PL or AP or left untreated"}, "[5]": {"assay": "Toxicity in MCF-7 xenograft nude mice (survival, body weight, ALT, AST)", "conditions": "for survival of animals: 5 animals per group", "protocol": "(§3) FIG. 3: Comparative efficacy and toxicity study in MCF-7 xenograft nude mouse model of BC. The efficacy of single i.p. injection of vehicle, PL (2 mg/kg) and AP (5 mg/kg) in 5 mice in each group was compared over a period of 21 days.\n(§4) MCF-7 tumors grown up to 300 mm3 in four nude mice were harvested, dissected into 1-2 mm3 fragments and implanted into the study group for further testing. Nude mice (with tumor volume of 150 mm3) were treated with 25% Polyethylene glycol (PEG) 400 as vehicle, 2 mg/kg PL and 5 mg/kg AP for 21 days during which tumor volume, body weight and, at the time of sacrifice, tumor weight was measured."}, "CETP [6]": {"tested_on": "CETP", "assay": "CETP protein in mice serum, western blotting and densitometry", "format": "in vivo", "conditions": "2 mg/kg PL, 5 mg/kg AP, compared to Vehicle", "experimental": "as §1, §2"}, "MCF-7 tumors": {"tested_on": "MCF-7 tumors", "assay": "Efficacy in MCF-7 xenograft nude mouse model of BC", "format": "in vivo, nude mice", "conditions": "21 days", "protocol": "as §3, §4"}, "[7]": {"tested_on": "lipid rafts of MCF-7 cells", "assay": "Lipid raft GM1 staining (CT-B Alexa 488)", "format": "cell-based, human", "conditions": "10 μM, over time (10 min to 2 h)", "experimental": "FIG. 4: Lipid raft GM1 staining in MCF-7 cells with the Vybrant® Alexa Fluor® 488 Lipid Raft Labeling Kit. Cells were cultured in 96-well plates and stained with CT-B Alexa 488 in untreated cells, and after treatment with 10 μM PL or AP for 10 min, 30 min, 1 h and 2 h.\nCholesterol plays an integral role in the formation of lipid rafts, steroid hormone synthesis and cell membrane formation. […] Cancer cells have a greater affinity for cholesterol to pace with demands of proliferation and synthesis of new membranes and lipid rafts. Pathway predictions derived from microarray expression data pointed at the impairment of cholesterol related processes by AP. To confirm whether cholesterol related pathways were affected by PL or AP, we performed lipid raft staining in MCF-7 cells and cholesterol quantitation in both MCF-7 cells and plasma samples obtained from mice. […]."}, "[8]": {"conditions": "2 mg/kg PL, 5 mg/kg AP, 21 days"}},
  "data": [
    {"smiles": "CC1=CC(=O)c2c(O)cccc2C1=O", "note": "[PL, 5-hydroxy-2-methyl-1,4-naphthoquinone, reference compound]", "values": [
      {"measurement": "pro-caspase 9 levels", "setting": "[1]", "result": "reduced"},
      {"measurement": "ratio of Bax and Bcl2", "setting": "[1]", "result": "alterations"},
      {"measurement": "reduction of pro-caspase 7, time observed", "setting": "[1]", "result": "as early as 2 and 6 h"},
      {"measurement": "PARP-1 cleavage", "setting": "[1]", "result": "substantially reduced from full length to the cleaved fragment"},
      {"measurement": "expression of DNA damage marker pH2AX", "setting": "[1]", "result": "significantly increased"},
      {"measurement": "sensitivity to apoptosis", "setting": "BJ CETP knockdown cells", "result": "no increased sensitivity to apoptosis"},
      {"measurement": "MOMP, fluorescence in the FL-2 channel", "setting": "MCF-7 cells [2]", "result": "lower fluorescent values"},
      {"measurement": "reduction of total cholesterol", "setting": "MCF-7 cells [3]", "result": 35, "unit": "%"},
      {"measurement": "reduction of CETP expression in tumors (mRNA)", "setting": "CETP [4]", "result": "no effect"},
      {"measurement": "cholesterol levels", "setting": "BJ CETP siRNA cells", "result": "No significant changes"},
      {"measurement": "ALT activity", "setting": "[5]; 2 mg/kg PL", "result": "increased"},
      {"measurement": "AST activity", "setting": "[5]; 2 mg/kg PL", "result": "increased"},
      {"measurement": "survival of animals", "setting": "[5]; [8]", "result": "one mouse died"},
      {"measurement": "mice succumbed to treatment due to toxicity", "setting": "[5]; 5 mg/kg PL, within four to six days", "result": 8, "unit": "mice"},
      {"measurement": "CETP protein levels in serum", "setting": "CETP [6]", "result": "slightly reduced"},
      {"measurement": "reduction of tumor volume", "setting": "MCF-7 tumors; 2 mg/kg PL, 5 mg/kg AP", "result": "approximately 17%"},
      {"measurement": "tumor weight in comparison to vehicle", "setting": "MCF-7 tumors; 2 mg/kg PL", "result": "no difference"},
      {"measurement": "distribution of lipid rafts (GM1 in plasma membranes)", "setting": "[7]", "result": "disrupted"}
    ]},
    {"smiles": "CC(=O)Oc1cccc2c1C(=O)C=C(C)C2=O", "note": "[AP, Acetyl Plumbagin]", "values": [
      {"measurement": "pro-caspase 9 levels", "setting": "[1]", "result": "reduced"},
      {"measurement": "ratio of Bax and Bcl2", "setting": "[1]", "result": "alterations"},
      {"measurement": "reduction of pro-caspase 7, time observed", "setting": "[1]", "result": "reduced at 12 h"},
      {"measurement": "PARP-1 cleavage", "setting": "[1]", "result": "substantially reduced from full length to the cleaved fragment"},
      {"measurement": "expression of DNA damage marker pH2AX", "setting": "[1]", "result": "significantly increased"},
      {"measurement": "sensitivity to apoptosis", "setting": "BJ CETP knockdown cells", "result": "no increased sensitivity to apoptosis"},
      {"measurement": "MOMP, fluorescence in the FL-2 channel", "setting": "MCF-7 cells [2]", "result": "lower fluorescent values"},
      {"measurement": "reduction of total cholesterol", "setting": "MCF-7 cells [3]", "result": 35, "unit": "%"},
      {"measurement": "reduction of CETP expression in tumors (mRNA)", "setting": "CETP [4]", "result": 60, "unit": "%"},
      {"measurement": "cholesterol levels", "setting": "BJ CETP siRNA cells", "result": "No significant changes"},
      {"measurement": "survival of animals", "setting": "[5]; [8]", "result": "survived"},
      {"measurement": "reduction of ALT activity", "setting": "[5]; 5 mg/kg AP", "result": 36, "unit": "%"},
      {"measurement": "reduction of AST activity", "setting": "[5]; 5 mg/kg AP", "result": 7, "unit": "%"},
      {"measurement": "body weight", "setting": "[5]; 5 mg/kg AP, 21 days", "result": "remained unaffected"},
      {"measurement": "CETP protein levels in serum", "setting": "CETP [6]", "result": "upregulated"},
      {"measurement": "reduction of tumor volume", "setting": "MCF-7 tumors; 2 mg/kg PL, 5 mg/kg AP", "result": 37, "unit": "%"},
      {"measurement": "inhibition of tumor growth", "setting": "MCF-7 tumors; 5 mg/kg AP", "result": 45, "unit": "%"},
      {"measurement": "distribution of lipid rafts (GM1 in plasma membranes)", "setting": "[7]", "result": "disrupted"}
    ]}
  ]
}
